Patent publication US11759455B2, “Substituted 1H-imidazo[4,5-b]pyridin-2(3H)-ones and their use as GLUN2B receptor modulators” (JANSSEN PHARMACEUTICA NV, priority 2016, dated 2023)
Read-outs that look alike come from different tables or passages of the source.

Target: T1, human GluN1/GluN2B NMDA receptors (Homo sapiens, UniProt Q13224)
T1 construct: expressed in transfected cells
Experiment: Cell-based calcium flux (FLIPR) assay on cloned human NR1/NR2B ion channels expressed in mammalian cells (standard and HTS buffer variants);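 note: stable Tet-On inducible cell line, Ca2+ influx triggered by glutamate at about EC40 plus 10 µM glycine, fluorescent dye read-out over 5 min, normalized to control wells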

[1] = standard assay buffer (0.5 mM MgCl2 in dye loading buffer; 137 mM NaCl, 4 mM KCl in assay buffer), human GluN1/GluN2B, read-out: NR2B IC50 (μM) standard assay
[2] = standard assay buffer (0.5 mM MgCl2 dye loading; 137 mM NaCl, 4 mM KCl assay buffer), human GluN1/GluN2B cells, read-out: NR2B IC50 (μM) standard assay

T1 sequence (Q13224 27-1484, other chains not shown): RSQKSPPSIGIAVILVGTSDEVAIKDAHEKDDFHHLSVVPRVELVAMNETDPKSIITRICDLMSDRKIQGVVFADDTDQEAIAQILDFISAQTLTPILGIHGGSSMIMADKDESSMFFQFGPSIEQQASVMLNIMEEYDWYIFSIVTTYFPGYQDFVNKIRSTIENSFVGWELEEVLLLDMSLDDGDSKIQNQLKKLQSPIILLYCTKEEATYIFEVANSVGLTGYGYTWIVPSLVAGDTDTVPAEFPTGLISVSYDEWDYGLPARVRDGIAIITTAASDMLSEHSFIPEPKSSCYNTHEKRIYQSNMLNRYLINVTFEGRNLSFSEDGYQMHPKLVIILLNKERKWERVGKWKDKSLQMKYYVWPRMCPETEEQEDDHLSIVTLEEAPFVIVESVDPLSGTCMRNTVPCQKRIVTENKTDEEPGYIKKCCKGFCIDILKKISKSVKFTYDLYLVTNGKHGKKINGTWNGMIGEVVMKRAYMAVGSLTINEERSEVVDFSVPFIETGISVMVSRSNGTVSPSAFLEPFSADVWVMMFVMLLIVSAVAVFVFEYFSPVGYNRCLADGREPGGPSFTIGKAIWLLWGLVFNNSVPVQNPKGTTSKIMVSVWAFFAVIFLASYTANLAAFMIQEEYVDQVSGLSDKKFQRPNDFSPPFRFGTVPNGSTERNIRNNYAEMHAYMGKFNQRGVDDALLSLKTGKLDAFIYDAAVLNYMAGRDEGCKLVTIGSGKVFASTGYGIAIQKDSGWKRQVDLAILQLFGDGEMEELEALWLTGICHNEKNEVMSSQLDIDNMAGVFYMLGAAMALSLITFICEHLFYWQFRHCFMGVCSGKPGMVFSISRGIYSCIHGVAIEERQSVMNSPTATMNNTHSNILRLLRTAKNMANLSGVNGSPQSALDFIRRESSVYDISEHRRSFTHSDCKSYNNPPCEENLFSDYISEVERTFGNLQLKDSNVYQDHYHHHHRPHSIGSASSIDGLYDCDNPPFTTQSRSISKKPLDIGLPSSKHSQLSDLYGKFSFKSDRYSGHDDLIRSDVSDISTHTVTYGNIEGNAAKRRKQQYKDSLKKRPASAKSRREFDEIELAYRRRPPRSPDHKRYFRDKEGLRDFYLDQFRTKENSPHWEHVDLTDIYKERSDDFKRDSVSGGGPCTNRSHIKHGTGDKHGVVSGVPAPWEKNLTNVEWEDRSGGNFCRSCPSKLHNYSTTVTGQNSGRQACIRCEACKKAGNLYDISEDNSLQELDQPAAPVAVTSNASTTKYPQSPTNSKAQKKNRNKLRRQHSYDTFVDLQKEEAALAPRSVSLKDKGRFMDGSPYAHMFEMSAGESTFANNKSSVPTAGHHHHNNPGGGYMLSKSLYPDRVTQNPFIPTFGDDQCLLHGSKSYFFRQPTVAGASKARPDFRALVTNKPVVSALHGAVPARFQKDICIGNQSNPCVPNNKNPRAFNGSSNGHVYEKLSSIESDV

| Structure (SMILES) | IC50 [1] [µM] | IC50 [2] [µM] | further results |
| --- | --- | --- | --- |
| Cc1cccnc1Cn1c(=O)[nH]c2ncc(-c3cccc(F)c3F)cc21 [Example 319, 6-(2,3-Difluorophenyl)-1-[(3-methyl-2-pyridyl)methyl]-3H-imidazo[4,5-b]pyridin-2-one] | > 10 | – | – |
| Cc1c(F)ccc(-c2cnc3c(c2)n(Cc2ccccn2)c(=O)n3C)c1F [Example 68, 6-(2,4-Difluoro-3-methyl-phenyl)-3-methyl-1-(2-pyridylmethyl)imidazo[4,5-b]pyridin-2-one] | – | 0.31 | – |
| Cc1cc(-c2cnc3[nH]c(=O)n(Cc4cncc(F)c4)c3c2)ccc1F [Example 299, 6-(4-Fluoro-3-methyl-phenyl)-1-[(5-fluoro-3-pyridyl)methyl]-3H-imidazo[4,5-b]pyridin-2-one] | – | 0.019 | – |
| Cn1c(=O)n(Cc2cnccn2)c2cc(-c3cccc(C(F)(F)F)c3)cnc21 [Example 249, 3-Methyl-1-(pyrazin-2-ylmethyl)-6-[3-(trifluoromethyl)phenyl]imidazo[4,5-b]pyridin-2-one] | – | 0.253 | – |
| Cc1cccc(C)c1-c1cnc2[nH]c(=O)n(CCN3CCC3)c2c1 [Example 157, 1-[2-(Azetidin-1-yl)ethyl]-6-(2,6-dimethylphenyl)-3H-imidazo[4,5-b]pyridin-2-one] | – | 1.97 | – |
| Cn1c(=O)n(Cc2ncccn2)c2cc(-c3ccc(F)c(F)c3)cnc21 [Example 64, 6-(3,4-Difluorophenyl)-3-methyl-1-(pyrimidin-2-ylmethyl)imidazo[4,5-b]pyridin-2-one] | – | 3.59 | – |
| O=c1[nH]c2ncc(-c3cccc(C(F)(F)F)c3)cc2n1Cc1cncc(C(F)(F)F)c1 [Example 259, 6-[3-(Trifluoromethyl)phenyl]-1-[[5-(trifluoromethyl)-3-pyridyl]methyl]-3H-imidazo[4,5-b]pyridin-2-one] | – | 1.03 | – |
| Cc1cc(Cn2c(=O)[nH]c3ncc(-c4ccccc4C)cc32)no1 [Example 126, 1-[(5-Methylisoxazol-3-yl)methyl]-6-(o-tolyl)-3H-imidazo[4,5-b]pyridin-2-one] | – | 0.038 | – |
| Cn1c(=O)n(CC(=O)N2CC(F)C2)c2cc(-c3cc(C(F)F)cs3)cnc21 [Example 118, 6-[4-(Difluoromethyl)-2-thienyl]-1-[2-(3-fluoroazetidin-1-yl)-2-oxo-ethyl]-3-methyl-imidazo[4,5-b]pyridin-2-one] | – | 0.02 | – |
| COc1ccc(-c2cnc3[nH]c(=O)n(CC4CC4)c3c2)c(OC)c1 [Example 465, 1-(Cyclopropylmethyl)-6-(2,4-dimethoxyphenyl)-3H-imidazo[4,5-b]pyridin-2-one] | – | – | IC50 (HTS assay buffer (1.5 mM MgCl2 in dye loading buffer; 150 mM NaCl, 3 mM KCl in assay buffer), human GluN1/GluN2B, read-out: NR2B IC50 (μM) HTS assay): 14.4 µM |
| Cn1c(=O)n(CC(=O)N2CCC2)c2cc(-c3csc(C(F)F)c3)cnc21 [Example 98, 1-[2-(Azetidin-1-yl)-2-oxo-ethyl]-6-[5-(difluoromethyl)-3-thienyl]-3-methyl-imidazo[4,5-b]pyridin-2-one] | – | 0.013 | – |
| Cc1ccccc1-c1cnc2[nH]c(=O)n(CCN3CCCC3)c2c1 [Example 179, 6-(o-Tolyl)-1-(2-pyrrolidin-1-ylethyl)-3H-imidazo[4,5-b]pyridin-2-one] | – | 0.707 | – |
| O=C(Cn1c(=O)[nH]c2ncc(-c3ccc(C(F)(F)F)s3)cc21)N1CCC1 [Example 323, 1-[2-(azetidin-1-yl)-2-oxo-ethyl]-6-[5-(trifluoromethyl)-2-thienyl]-3H-imidazo[4,5-b]pyridin-2-one] | 0.041 | – | – |

Further lines, with some results ahead:

| IC50 [1] [µM] | IC50 [2] [µM] | Structure (SMILES) | further results |
| --- | --- | --- | --- |
| 0.206 | – | Cn1c(=O)n(Cc2cccnn2)c2cc(-c3ccc(Cl)c(C(F)(F)F)c3)cnc21 [Example 384, 6-[4-Chloro-3-(trifluoromethyl)phenyl]-3-methyl-1-(pyridazin-3-ylmethyl)imidazo[4,5-b]pyridin-2-one] | – |
| 0.333 | – | O=C(Cn1c(=O)[nH]c2ncc(-c3cc(OCCF)cc(C(F)(F)F)c3)cc21)N1CCC1 [Example 539, 1-[2-(Azetidin-1-yl)-2-oxo-ethyl]-6-[3-(2-fluoroethoxy)-5-(trifluoromethyl)phenyl]-3H-imidazo[4,5-b]pyridin-2-one] | – |
| 0.01 | – | Cn1c(=O)n(CC(=O)N2CCC2)c2cc(-c3ccc(F)c(F)c3)cnc21 [Example 422, 1-[2-(Azetidin-1-yl)-2-oxo-ethyl]-6-(3,4-difluorophenyl)-3-methyl-imidazo[4,5-b]pyridin-2-one] | – |
| 0.107 | – | Cn1c(=O)n(Cc2cncc(F)c2)c2cc(-c3cccc(Cl)c3F)cnc21 [Example 349, 6-(3-Chloro-2-fluoro-phenyl)-1-[(5-fluoro-3-pyridyl)methyl]-3-methyl-imidazo[4,5-b]pyridin-2-one] | – |
| 0.016 | – | Cn1c(=O)n(Cc2cccnn2)c2cc(-c3ccc(F)c(C(F)(F)F)c3)cnc21 [Example 382, 6-[4-Fluoro-3-(trifluoromethyl)phenyl]-3-methyl-1-(pyridazin-3-ylmethyl)imidazo[4,5-b]pyridin-2-one] | – |
| 0.213 | – | Cn1c(=O)n(Cc2cncc(F)c2)c2cc(-c3cccc(Cl)c3)cnc21 [Example 348, 6-(3-Chlorophenyl)-1-[(5-fluoro-3-pyridyl)methyl]-3-methyl-imidazo[4,5-b]pyridin-2-one] | – |
| 0.13 | – | Cn1cc(Cn2c(=O)n(C)c3ncc(-c4cccc(C(F)(F)F)c4)cc32)nn1 [Example 552, 3-Methyl-1-[(1-methyltriazol-4-yl)methyl]-6-[3-(trifluoromethyl)phenyl]imidazo[4,5-b]pyridin-2-one] | – |
| 0.512 | – | Cn1c(=O)n(Cc2csnn2)c2cc(-c3ccc(F)c(F)c3)cnc21 [Example 545, 6-(3,4-Difluorophenyl)-3-methyl-1-(thiadiazol-4-ylmethyl)imidazo[4,5-b]pyridin-2-one] | – |
| 0.126 | – | CN(C)C(=O)Cn1c(=O)n(C)c2ncc(-c3cc(F)cc(F)c3)cc21 [Example 428, 2-[6-(3,5-Difluorophenyl)-3-methyl-2-oxo-imidazo[4,5-b]pyridin-1-yl]-N,N-dimethyl-acetamide] | – |
| 0.034 | – | Cn1c(=O)n(Cc2cccnc2)c2cc(-c3ccc(F)c(C(F)(F)F)c3)cnc21 [Example 360, 6-[4-Fluoro-3-(trifluoromethyl)phenyl]-3-methyl-1-(3-pyridylmethyl)imidazo[4,5-b]pyridin-2-one] | – |
| 0.264 | – | CNC(=O)Cn1c(=O)[nH]c2ncc(-c3cccc(C(F)(F)F)c3)cc21 [Example 435, N-Methyl-2-[2-oxo-6-[3-(trifluoromethyl)phenyl]-3H-imidazo[4,5-b]pyridin-1-yl]acetamide] | – |
| 0.028 | – | Cn1c(=O)n(CC(=O)N2CC(F)C2)c2cc(-c3ccc(F)c(OC(F)F)c3)cnc21 [Example 589, 6-[3-(Difluoromethoxy)-4-fluoro-phenyl]-1-[2-(3-fluoroazetidin-1-yl)-2-oxo-ethyl]-3-methyl-imidazo[4,5-b]pyridin-2-one] | – |
| 0.144 | – | Cn1c(=O)n(Cc2cccnc2)c2cc(-c3cc(F)c(F)c(F)c3)cnc21 [Example 353, 3-Methyl-1-(3-pyridylmethyl)-6-(3,4,5-trifluorophenyl)imidazo[4,5-b]pyridin-2-one] | – |
| 0.135 | – | CCOc1ccccc1-c1cnc2[nH]c(=O)n(CC(=O)c3cccs3)c2c1 [Example 458, 6-(2-Ethoxyphenyl)-1-[2-oxo-2-(2-thienyl)ethyl]-3H-imidazo[4,5-b]pyridin-2-one] | – |
| 0.017 | – | Cc1c(F)ccc(-c2cnc3c(c2)n(CC(=O)N2CC(F)C2)c(=O)n3CF)c1F [Example 600, 6-(2,4-Difluoro-3-methyl-phenyl)-1-[2-(3-fluoroazetidin-1-yl)-2-oxo-ethyl]-3-(fluoromethyl)imidazo[4,5-b]pyridin-2-one] | – |
